In patent publication US20050084524A1, “Method for potentiating activity of a chemotherapeutic drug” (ALZA Corporation, priority 1998, published 2005):
Marks after values point to notes of the source that are not given here.

Assays:
[1] = test system: BT474 xenografts; experiment: BT474 human breast cancer xenograft, cisplatin studies 6-7; type: in vivo, mice
Procedure: In Study No. 6, mice were inoculated with BT474 cells.
The animals were dosed as described in Example 2, with the saline and chemotherapeutic agent administered intravenously once per week and the biological agent administered intraperitoneally twice per week.
(§1) Two separate HER2-overexpressing human breast cancer xenograft models were utilized: BT474 and MDA453. The BT474 or MDA453 tumors were inoculated from cultured cells in exponential growth. Cells were trypsinized, collected and washed in media. Cells were counted by hemacytometer, spun down and resuspended in media at 50 million cells per milliliter of media (5 million cells per 0.1 ml injection volume). Resuspended cells were chilled, then mixed in an equal volume of Matrigel. Cells (0.2 ml, continuously mixed) were drawn into individual, chilled syringes for subcutaneous injection into the dorsum of each animal.
(§2) Immune-deficient female mice (NCR.nu/nu, Taconic Farms, Germantown, N.Y.) were obtained from the vendor and acclimated for at least 7 days prior to initiation of experiments. Animals were housed in microisolator caging (Thoren Caging, Hazelton, Pa.) with ad lib gamma irradiated rodent food and autoclaved, acidified water. Lights were set for 12:12 light: dark cycle. All animals received a 0.72 mg estradiol 17β sustained release pellet (Innovative Research of America, Sarasota, Fla.) by subcutaneous injection 24 hours prior to tumor inoculation. Animals were randomized into treatment groups prior to inoculation of tumors.
(§3) Animals were weighed prior to inoculation of tumors and at least weekly thereafter. Tumors were measured twice weekly throughout the experiment, beginning 6-8 days after tumor inoculation. Tumor measurements were made by digital caliper in 3 dimensions and the volume recorded as one half the product of these measurements. Any animal observed to have 15% or greater weight loss from the initial starting weight was immediately euthanized. Any animal observed to have greater than 4,000 mm^3 tumor volume was immediately euthanized.
(§4) Animals were divided into 6 treatment groups (12 animals each) prior to inoculation of tumors in all experiments.
All treatments were administered for 3 weekly cycles. Treatment was initiated when average tumor volume was 75 mm^3 (approximately 6-10 days after inoculation).
Tumor volumes, measured repeatedly throughout experiments, were used for analysis as correlated information. Since tumor growth over time after treatment was of interest, repeated measurement analysis for each treatment group was performed. Growth rates (slope) for each treatment group within each experiment were calculated and compared in linear regression. If the growth rate was positive for a certain treatment, tumors were still growing even after receiving the drug; if the growth rate is negative, tumors began to shrink after receiving the drug; if the growth rate is 0, tumors stop growing after receiving the drug. A p-value of 0.05 or less is considered significant.
(§5) Tumor size at specific times after treatment was compared between treated and control groups. Tumor growth inhibition was reported as % T/C which is the tumor size of each treated group divided by the control group, expressed as a percentage.

[2] = test system: MDA453 xenografts; experiment: MDA453 human breast cancer xenograft, cisplatin study 8; type: in vivo, mice
Procedure: as §1, §2
(§6) Animals were weighed prior to inoculation of tumors and at least weekly thereafter. Tumors were measured twice weekly throughout the experiment, beginning 6-8 days after tumor inoculation. Tumor measurements were made by digital caliper in 3 dimensions and the volume recorded as one half the product of these measurements. […]
Tumor volumes, measured repeatedly throughout experiments, were used for analysis as correlated information. […] Growth rates (slope) for each treatment group within each experiment were calculated and compared in linear regression. […]
as §5

[3] = Maximum tolerated dose (MTD) in immune-deficient mice; type: in vivo; details: once weekly, intravenous
From the text: as §4

[4] = test system: MDA453 xenografts; experiment: MDA453 human breast cancer xenograft, doxorubicin study 4; type: in vivo, mice
Procedure: (§7) 1. BT474 and MDA453 Cells: The BT474 and MDA453 tumors were each inoculated from cultured cells in exponential growth. Cells were trypsinized, collected and washed in media. Cells were counted by hemacytometer, spun down and resuspended in media at 50 million cells per milliliter of media. Resuspended cells were chilled, then mixed with an equal volume of Matrigel. Cells (5 million cells per 0.2 ml injection volume, continuously mixed) were drawn into individual, chilled syringes for subcutaneous injection into the dorsum of each animal.
Immune deficient mice were used in all experiments. Study numbers 1, 2, 3 and 4 were conducted in homozygous nude female mice. […]
as §6, with “one-half” for “one half”
(§8) Tumor volumes, measured repeatedly throughout the experiments, were used for analysis as correlated information. […] All tumor volumes were log transformed, with z=log10(y+1) where y is the calculated tumor volume, thus when y=0, z is meaningful and z=0. Log growth rates for transformed values, z, for each treatment group within each experiment were calculated and compared in linear regression. […]

[5] = test system: A431 tumor; experiment: A431 tumor xenograft implanted subcutaneously in nude mice, tumor volume; type: in vivo
From the text: In studies performed in support of the invention, a xenograft of the A431 tumor was implanted subcutaneously in nude mice. […] The liposomes included a vesicle-forming lipid derivatized with the hydrophilic polymer polyethyleneglycol.

[6] = test system: B585 xenografts; experiment: B585 primary human breast cancer xenograft, doxorubicin study 5; type: in vivo, mice; details: doxorubicin HCl or liposome-entrapped 4 mg/kg iv once/week x3, anti-HER2 antibody 3 mg/kg ip twice/week x6
Procedure: 2. […] Resuspended cells were chilled, then mixed with an equal volume of Matrigel. Cells (5 million cells per 0.2 ml injection volume, continuously mixed) were drawn into individual, chilled syringes for subcutaneous injection into the dorsum of each animal.
Immune deficient mice were used in all experiments. Study numbers 1, 2, 3 and 4 were conducted in homozygous nude female mice. Study number 5 was conducted in homozygous ICR scid female mice. All mice were obtained at the age of four weeks and acclimated for a minimum of 1 week prior to tumor inoculation. All mice were ear tagged for individual identification during acclimation. […]
as §6, with “one-half” for “one half”
as §8

[7] = test system: BT474 xenografts; experiment: BT474 human breast cancer xenograft, doxorubicin studies 1-3; type: in vivo, mice
Procedure: In study numbers 1, 2 and 3 immune-deficient mice were inoculated by subcutaneous injection into the dorsum with 5 million BT474 cells in 0.1 mL added to an equal volume of Matrigel for an inoculation volume of 0.2 mL. The inoculated mice were divided into six treatment groups of 12 mice each, prior to inoculation. Treatment was initiated when the average tumor volume was 100 mm^3, which occurred approximately 7-10 days after inoculation.
Saline, doxorubicin and liposome-entrapped doxorubicin were administered by intravenous injection for three treatments. […] The animals were monitored daily and the tumors were measured in three dimensions twice weekly over the study period.
as §7
Immune deficient mice were used in all experiments. Study numbers 1, 2, 3 and 4 were conducted in homozygous nude female mice. Study number 5 was conducted in homozygous ICR scid female mice. All mice were obtained at the age of four weeks and acclimated for a minimum of 1 week prior to tumor inoculation. All mice were ear tagged for individual identification during acclimation. For each study, 75 mice were inoculated with tumors to supply 72 study animals at treatment.
as §3, with “one-half” for “one half”, “euthanized by inhalation of 100% carbon dioxide.” for “euthanized.”
Animals were divided into 6 treatment groups prior to inoculation of tumors. […] Treatment was initiated when average tumor volume was 100 mm^3 (approximately 7-10 days after inoculation).
Tumor volumes, measured repeatedly throughout the experiments, were used for analysis as correlated information. Since tumor growth over time after treatment was of interest, repeated measurement analysis for each treatment group was performed. All tumor volumes were log transformed, with z=log10(y+1) where y is the calculated tumor volume, thus when y=0, z is meaningful and z=0. Log growth rates for transformed values, z, for each treatment group within each experiment were calculated and compared in linear regression. If the log growth rate is positive for a certain treatment, this means that the tumors still grow even after receiving the drug; if the log growth rate is negative, this means that the tumors begin to shrink after receiving the drug; if the log growth rate is 0, then the tumors stop growing after receiving the drug. A p-value of 0.05 or less is statically significant.

N.N.[Cl][Pt][Cl] [Cisplatin, cisplatin]
Size of treated tumors as a function of size of control tumors, % T/C, Study No. 6 ([1]; Day 44, BT474, cisplatin 6 mg/kg, antibody 3 mg/kg, control saline): 10.0 % T/C
Size of treated tumors as a function of size of control tumors, % T/C, Study No. 7 ([1]; Day 49, BT474, cisplatin 4 mg/kg, antibody 0.5 mg/kg, control saline): 41.7 % T/C
tumor volume over treatment period (FIGS. 7A-7B), in words ([1]; Study No. 6, BT474, cisplatin 6 mg/kg, antibody 3 mg/kg): fared considerably better than the untreated animals
tumor volume over treatment period (FIG. 8), in words ([1]; Study No. 7, BT474, cisplatin 4 mg/kg, antibody 0.5 mg/kg): continual tumor growth
Growth rate of tumors (slope), Study No. 7 BT474 ([1]; cisplatin or liposome-entrapped cisplatin 4 mg/kg iv once/week x3, anti-HER2 antibody 0.5 mg/kg ip twice/week x6): 14.35^b
Growth rate of tumors (slope), Study No. 6 BT474 ([1]; cisplatin or liposome-entrapped cisplatin 6 mg/kg iv once/week x3, anti-HER2 antibody 3 mg/kg ip twice/week x6): 1.02
Size of treated tumors as a function of size of control tumors, % T/C, Study No. 8 ([2]; Day 33, MDA453, cisplatin 4 mg/kg, antibody 1 mg/kg, control saline): 56.1 % T/C
tumor volume over treatment period (FIGS. 9A-9B), in words ([2]; Study No. 8, MDA453, cisplatin 4 mg/kg, antibody 1 mg/kg): continual tumor growth
Growth rate of tumors (slope), Study No. 8 MDA453 ([2]; cisplatin or liposome-entrapped cisplatin 4 mg/kg iv once/week x3, anti-HER2 antibody 1 mg/kg ip twice/week x6): 19.84^e
MTD [3]: 6 mg/kg

COc1cccc2c1C(=O)c1c(O)c3c(c(O)c1C2=O)C[C@@](O)(C(=O)CO)C[C@@H]3O[C@H]1C[C@H](N)[C@H](O)[C@H](C)O1 [doxorubicin]
Log Growth Rate, Study No. 4 ([4]; MDA453, doxorubicin HCl or liposome-entrapped 5 mg/kg iv once/week x3, anti-HER2 antibody 5 mg/kg ip twice/week x6): 0.020^a
tumor volume over treatment period (FIGS. 5A-5B), in words ([4]; Study No. 4, MDA453, doxorubicin 5 mg/kg, liposomal 5 mg/kg, antibody 5 mg/kg): continual increase in tumor volume
Tumor Volume at 40 days ([5]; 40 days following tumor implantation): 1700 mm^3
Tumor Volume at 60 days ([5]; 60 days following tumor implantation): 3650 mm^3
tumor volume as a function of time (FIG. 1), in words ([5]; treatment from day 6): still an increase in tumor size but to a lesser extent
Log Growth Rate, Study No. 5 [6]: 0.052
Log Growth Rate, Study No. 1 ([7]; BT474, doxorubicin HCl 4 mg/kg or liposome-entrapped 3 mg/kg iv once/week x3, anti-HER2 antibody 10 mg/kg ip twice/week x6): 0.027
Log Growth Rate, Study No. 3 ([7]; BT474, doxorubicin HCl or liposome-entrapped 3 mg/kg iv once/week x3, anti-HER2 antibody 1 mg/kg ip twice/week x6): 0.011^a
Log Growth Rate, Study No. 2 ([7]; BT474, doxorubicin HCl or liposome-entrapped 5 mg/kg iv once/week x3, anti-HER2 antibody 3 mg/kg ip twice/week x6): 0.010^a
tumor volume over treatment period (FIGS. 2A-2B), in words ([7]; Study No. 1, BT474, doxorubicin 4 mg/kg, liposomal 3 mg/kg, antibody 10 mg/kg): continual tumor growth
tumor volume over treatment period (FIGS. 3A-3B), in words ([7]; Study No. 2, BT474, doxorubicin 5 mg/kg, liposomal 5 mg/kg, antibody 3 mg/kg): reduced tumor volume relative to the control animals
tumor volume over treatment period (FIGS. 4A-4B), in words ([7]; Study No. 3, BT474, doxorubicin 3 mg/kg, liposomal 3 mg/kg, antibody 1 mg/kg): fared better than the untreated animals
